Earlier results on three molecules are cited in US5356784A, “Determination of concentration by affinity titration” (Terrapin Technologies, Inc., priority 1993, dated 1994).

The subject of this data set is Concanavalin A (ConA). The following applies: ConA with bacterial dextran from strain B-1355-5; materials described by Scott et al. PNAS 1992.

Turning to `CO[C@H]1O[C@H](CO)[C@@H](O)[C@H](O)[C@@H]1O` [MeMan, methyl-alpha-Man], the “inhibition of precipitation of ConA-dextran” value (shortened to “inhibition”) is “inhibited in a dosedependent manner”.
As for “MYWYPY: peptide identified by screening a phage epitope display library; inhibits Con A-dextran precipitation”, the “inhibition” value is given as “inhibit”.
On to “VGRAFS: peptide identified by screening a phage epitope display library; inhibits Con A-dextran precipitation”, for which the “inhibition” value is “inhibit”.
